Test results from PMC3958746 (FEBS Open Bio, 2014).

Target: core histone octamer (Homo sapiens, UniProt P0C0S8+P62805+P62807+P68431)
Assay: intrinsic histone fluorescence quenching titration
Type: binding

**Q.** `CC[n+]1c(-c2ccccc2)c2cc(N)ccc2c2ccc(N)cc21` [EB, ethidium bromide] was tested. Which Kd did it give?
**A.** 7.7 ± 0.1 µM
